Converted amounts (≈) assume the structure as drawn. Like-named read-outs stand apart in the source and are kept apart here.
What was measured:
[1] = system: Staphylococcus aureus MB6266 (MRSA COL); experiment: Nargenicin antibacterial assay (MIC), S. aureus; assay type: cell-based; conditions: Staphylococcus aureus, MRSA, read-out: S. aureus COL (MIC), MHII broth + 50% human serum; * = some reduction of growth versus control at […]
[2] = target: T1, S. aureus DnaE (DNA polymerase III α-subunit homolog from Staphylococcus aureus) (Staphylococcus aureus, UniProt Q5HF71); experiment: biochemical; assay type: biochemical
T1 construct: SaDnaE (S. aureus DnaE residues 1-1065); 6xHis (N); made in house; host or cells: E. coli BL21-AI
T1 sequence (Q5HF71 1-1065): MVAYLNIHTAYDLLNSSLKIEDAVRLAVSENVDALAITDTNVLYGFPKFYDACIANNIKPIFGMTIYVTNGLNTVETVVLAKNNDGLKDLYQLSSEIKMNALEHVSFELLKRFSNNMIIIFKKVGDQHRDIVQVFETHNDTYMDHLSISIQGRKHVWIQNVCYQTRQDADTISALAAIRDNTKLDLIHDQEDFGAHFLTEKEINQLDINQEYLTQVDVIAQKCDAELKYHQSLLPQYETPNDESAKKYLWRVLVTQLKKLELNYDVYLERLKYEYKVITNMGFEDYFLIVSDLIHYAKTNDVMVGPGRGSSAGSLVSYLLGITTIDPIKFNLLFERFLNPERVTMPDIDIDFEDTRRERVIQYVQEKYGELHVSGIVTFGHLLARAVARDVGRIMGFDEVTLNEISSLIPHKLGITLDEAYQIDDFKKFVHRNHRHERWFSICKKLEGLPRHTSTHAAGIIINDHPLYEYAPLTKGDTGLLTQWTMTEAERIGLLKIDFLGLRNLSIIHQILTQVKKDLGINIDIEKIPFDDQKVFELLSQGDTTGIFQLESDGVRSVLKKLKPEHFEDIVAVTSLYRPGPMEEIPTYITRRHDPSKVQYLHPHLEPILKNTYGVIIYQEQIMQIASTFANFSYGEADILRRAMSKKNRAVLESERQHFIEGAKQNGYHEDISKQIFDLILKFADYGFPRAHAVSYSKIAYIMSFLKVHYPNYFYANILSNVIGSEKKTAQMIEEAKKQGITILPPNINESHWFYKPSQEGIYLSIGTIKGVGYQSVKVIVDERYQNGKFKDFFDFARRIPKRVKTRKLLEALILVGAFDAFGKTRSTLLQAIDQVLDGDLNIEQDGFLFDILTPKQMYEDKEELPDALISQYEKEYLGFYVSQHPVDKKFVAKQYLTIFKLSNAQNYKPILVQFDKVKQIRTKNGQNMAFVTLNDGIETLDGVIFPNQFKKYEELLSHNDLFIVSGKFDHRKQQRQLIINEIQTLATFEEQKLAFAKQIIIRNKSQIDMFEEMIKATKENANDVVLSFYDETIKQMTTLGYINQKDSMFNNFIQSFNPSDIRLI
Method in brief: (§1)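 3H-dTTP (0.011 mM) incorporation into DNase I-activated calf thymus DNA, alongside the other three dNTPs at 0.025 mM, measured by filter counting after TCA precipitation. Reactions ran 30 min at 30° C., started with purified N-His DnaE: 0.8 μg/ml for E. coli, 0.05 μg/ml for S. aureus.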

[3] = system: Pseudomonas aeruginosa MB5890 (CB1101, efflux-deleted); experiment: microbe, parasite or virus in culture; assay type: cell-based; conditions: Pseudomonas aeruginosa, read-out: P. aeruginosa MB5890 efflux-del (MIC), MHII broth; * = some reduction of growth versus control at […]
[4] = target: T2, E. coli DnaE (DNA polymerase III α-subunit from Escherichia coli) (Escherichia coli, UniProt P10443); experiment: In vitro DnaE single enzyme assay (E. coli); assay type: biochemical
T2 construct: EcDnaE (E. coli DnaE residues 1-1160); 6xHis (N); made in house; host or cells: E. coli BL21(DE3)
T2 sequence (P10443 whole entry, the tested form may be a part): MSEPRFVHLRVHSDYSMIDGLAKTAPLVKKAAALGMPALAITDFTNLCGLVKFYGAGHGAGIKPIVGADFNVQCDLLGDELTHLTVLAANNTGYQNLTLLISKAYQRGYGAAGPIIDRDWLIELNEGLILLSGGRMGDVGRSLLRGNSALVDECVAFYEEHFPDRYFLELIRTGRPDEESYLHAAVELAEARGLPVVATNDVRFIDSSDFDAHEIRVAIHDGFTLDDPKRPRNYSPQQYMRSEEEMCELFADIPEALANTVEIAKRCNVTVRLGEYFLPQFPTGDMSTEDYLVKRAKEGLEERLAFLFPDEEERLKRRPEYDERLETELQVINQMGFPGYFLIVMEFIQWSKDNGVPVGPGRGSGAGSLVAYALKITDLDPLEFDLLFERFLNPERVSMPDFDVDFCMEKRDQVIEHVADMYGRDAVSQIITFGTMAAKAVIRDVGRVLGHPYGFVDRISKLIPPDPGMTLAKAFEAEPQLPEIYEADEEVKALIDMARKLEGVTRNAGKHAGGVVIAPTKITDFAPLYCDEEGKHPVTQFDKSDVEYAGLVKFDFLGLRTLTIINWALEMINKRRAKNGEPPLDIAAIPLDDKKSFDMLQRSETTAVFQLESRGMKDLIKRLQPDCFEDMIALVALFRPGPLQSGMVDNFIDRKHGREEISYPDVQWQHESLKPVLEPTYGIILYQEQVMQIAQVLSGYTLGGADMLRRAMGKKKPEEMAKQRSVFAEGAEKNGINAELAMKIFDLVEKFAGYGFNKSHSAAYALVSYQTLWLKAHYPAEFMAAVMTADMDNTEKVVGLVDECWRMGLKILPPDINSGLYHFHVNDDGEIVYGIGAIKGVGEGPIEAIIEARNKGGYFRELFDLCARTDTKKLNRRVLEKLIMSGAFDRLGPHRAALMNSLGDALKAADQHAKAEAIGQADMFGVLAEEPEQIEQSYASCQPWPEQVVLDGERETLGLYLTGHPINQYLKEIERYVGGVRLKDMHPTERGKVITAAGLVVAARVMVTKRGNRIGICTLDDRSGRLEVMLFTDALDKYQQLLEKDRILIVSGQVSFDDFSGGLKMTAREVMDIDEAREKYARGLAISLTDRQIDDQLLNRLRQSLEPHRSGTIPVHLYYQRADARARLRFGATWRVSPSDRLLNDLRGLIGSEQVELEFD
Method in brief: as §1

[5] = system: Escherichia coli MB5747 (LS 883, tolC); experiment: microbe, parasite or virus in culture; assay type: cell-based; conditions: Escherichia coli, read-out: E. coli LS883 tolC (MIC), MHII broth; * = some reduction of growth versus control at […]
[6] = system: Streptococcus pneumoniae MB6357 (CL 2883); experiment: Nargenicin antibacterial assay (MIC), S. pneumoniae; assay type: cell-based; conditions: Streptococcus pneumoniae, read-out: S. pneumoniae MB2883 (MIC), Isosensitest broth; * = some reduction of growth versus control at […]
[7] = read-out: E. coli DnaE IC50 (converted)
[8] = read-out: S. aureus DnaE IC50 (converted)

SMILES: CO[C@H]1C[C@H]2C=C[C@H]3[C@H]4O[C@]2(/C(C)=C/[C@@H](C)[C@@H]([C@@H](C)O)OC1=O)[C@@H]3[C@H](OC(N)=O)[C@@H](C)[C@H]4O [Example 187]
- MIC [1]: > 128 µg/mL
- IC50 ([2]; S. aureus DnaE IC50): 387 nM
- MIC [3]: 32 µg/mL (≈ 68.7 µM)
- IC50 [4, 7]: > 215 µM
- MIC [5]: 16 µg/mL (≈ 34.4 µM)
- MIC [6]: > 128 µg/mL

SMILES: COC1CC2C=CC3C4OC2(C(C)=CC(C)C(C(C)OC(=O)NCCCN2CCN(C)CC2)OC1=O)C3C(O)C(C)C4OC(=O)c1ccc[nH]1 (stereo not drawn) [Example 25]
- MIC [1]: 32 µg/mL
- IC50 [2, 8]: 30 nM
- MIC [3]: > 128 µg/mL
- IC50 ([4]; E. coli DnaE IC50): > 143 µM
- MIC [5]: 32 µg/mL (≈ 45.8 µM)
- MIC [6]: > 128 µg/mL

SMILES: CO[C@H]1C[C@H]2C=C[C@H]3[C@H]4O[C@]2(/C(C)=C/[C@@H](C)[C@@H]([C@@H](C)OC(=O)C[N+]25CC[N+](CC(N)=O)(CC2)CC5)OC1=O)[C@@H]3[C@H](O)[C@@H](C)[C@H]4OC(=O)c1ccc[nH]1.O=S(=O)([O-])C(F)(F)F.[Br-] [Example 74]
- MIC [1]: 0.5 µg/mL
- IC50 ([2]; S. aureus DnaE IC50): < 6.28 nM
- MIC [3]: 32 µg/mL
- IC50 [4, 7]: 20.9 µM
- MIC [5]: 0.5 µg/mL
- MIC [6]: > 128 µg/mL

SMILES: CO[C@H]1C[C@H]2C=CC3C4[C@H](O)[C@@H](C)[C@@H](OC(=O)c5ccc[nH]5)[C@@H]3O[C@]42/C(C)=C/[C@@H](C)[C@@H]([C@@H](C)OC(=O)C(=O)OCc2ccccc2)OC1=O [Example 211]
- MIC [1]: 0.5 µg/mL
- IC50 ([2]; S. aureus DnaE IC50): < 8.85 nM
- MIC [3]: 16 µg/mL (≈ 23.6 µM)
- IC50 [4, 7]: 2.95 µM
- MIC [5]: < 0.125 µg/mL
- MIC [6]: > 128 µg/mL

SMILES: CO[C@H]1C[C@H]2C=C[C@H]3[C@H]4O[C@]2(/C(C)=C/[C@@H](C)[C@H](C)OC1=O)[C@@H]3[C@H](O)[C@@H](C)[C@H]4OC(=O)c1ccc[nH]1 [Example 48, (3R,4S,7S,8aS,10aR,11R,12R,13R,14R,14aS,14bS,E)-14-hydroxy-7-methoxy-1,3,4,13-tetramethyl-6-oxo-3,4,6,7,8,8a,10a,11,12,13,14,14a-dodecahydro-11,14b-epoxynaphtho[2,1-e]oxecin-12-yl 1H-pyrrole-2-carboxylate]
- MIC [1]: > 128 µg/mL
- IC50 ([2]; S. aureus DnaE IC50): 165 nM
- MIC [3]: > 128 µg/mL
- IC50 ([4]; E. coli DnaE IC50): > 206 µM
- MIC [5]: 64 µg/mL (≈ 132 µM)
- MIC [6]: 128 µg/mL (≈ 264 µM)

SMILES: CO[C@H]1C[C@H]2CC[C@H]3[C@H]4O[C@]2(/C(C)=C/[C@@H](C)[C@@H]([C@@H](C)O)OC1=O)[C@@H]3[C@H](O)[C@@H](C)[C@H]4OC(=O)c1ccc[nH]1 [Example 37, (3R,4S,7S,8aR,10aR,11R,12R,13R,14R,14aS,14bS,E)-14-hydroxy-4-((R)-1-hydroxyethyl)-7-methoxy-1,3,13-trimethyl-6-oxo-3,4,6,7,8,8a,9,10,10a,11,12,13,14,14a-tetradecahydro-11,14b-epoxynaphtho[2,1-e]oxecin-12-yl 1H-pyrrole-2-carboxylate]
- MIC [1]: > 8 µg/mL
- IC50 ([2]; S. aureus DnaE IC50): < 96.6 nM
- MIC [3]: 128 µg/mL (≈ 247 µM)
- IC50 ([4]; E. coli DnaE IC50): > 193 µM
- MIC [5]: > 8 µg/mL
- MIC [6]: > 128 µg/mL

SMILES: CO[C@H]1C[C@H]2C=CC3C4[C@H](O)[C@@H](C)[C@@H](OC(=O)c5ccc[nH]5)[C@@H]3O[C@]42/C(C)=C/[C@@H](C)[C@@H]([C@@H](C)OC(=O)C(=O)OCCN2CCCC2)OC1=O.O=C(O)C(F)(F)F [Example 212]
- MIC [1]: 4 µg/mL
- IC50 ([2]; S. aureus DnaE IC50): < 7.51 nM
- MIC [3]: 128 µg/mL
- IC50 [4, 7]: 3.76 µM
- MIC [5]: 4 µg/mL
- MIC [6]: > 128 µg/mL

SMILES: CO[C@H]1C[C@H]2C=C[C@H]3[C@H]4O[C@]2(/C(C)=C/[C@@H](C)[C@@H]([C@@H](C)OC(=O)NNC(N)=O)OC1=O)[C@@H]3[C@H](O)[C@@H](C)[C@H]4OC(=O)c1ccc[nH]1 [Example 23]
- MIC [1]: 8 µg/mL
- IC50 ([2]; S. aureus DnaE IC50): < 9.73 nM
- MIC [3]: 64 µg/mL (≈ 104 µM)
- IC50 [4, 7]: 48.6 µM
- MIC [5]: 4 µg/mL (≈ 6.49 µM)
- MIC [6]: > 128 µg/mL

SMILES: COC1CC2C=CC3C4OC2(C(C)=CC(C)C(C(C)OC(=O)NCCN2CCN(C)CC2)OC1=O)C3C(O)C(C)C4OC(=O)c1ccc[nH]1 (stereo not drawn) [Example 24]
- MIC [1]: 32 µg/mL
- IC50 [2, 8]: 8.76 nM
- MIC [3]: > 128 µg/mL
- IC50 ([4]; E. coli DnaE IC50): > 146 µM
- MIC [5]: 32 µg/mL (≈ 46.7 µM)
- MIC [6]: > 128 µg/mL

SMILES: CO[C@H]1CC2C=C[C@H]3[C@H]4O[C@]2(/C(C)=C/[C@@H](C)[C@@H](C(C)OC(C)=O)OC1=O)[C@@H]3[C@H](O)[C@@H](C)[C@H]4OC(=O)c1ccc[nH]1 (stereo partly drawn) [Example 57]
- MIC [1]: 8 µg/mL
- IC50 ([2]; S. aureus DnaE IC50): < 10.8 nM
- MIC [3]: > 128 µg/mL
- IC50 [4, 7]: 80.7 µM
- MIC [5]: 4 µg/mL (≈ 7.17 µM)
- MIC [6]: 64 µg/mL (≈ 115 µM)

SMILES: CO[C@H]1C[C@H]2[C@@H](O)C[C@H]3[C@H]4O[C@]2(/C(C)=C/[C@@H](C)[C@@H]([C@@H](C)O)OC1=O)[C@@H]3[C@H](O)[C@@H](C)[C@H]4OC(=O)c1ccc[nH]1 [Example 193]
- MIC [1]: > 128 µg/mL
- IC50 ([2]; S. aureus DnaE IC50): 1870 nM
- MIC [3]: > 128 µg/mL
- IC50 [4, 7]: > 187 µM
- MIC [5]: 64 µg/mL (≈ 120 µM)
- MIC [6]: > 128 µg/mL

SMILES: CO[C@H]1C[C@H]2C=C[C@H]3[C@H]4O[C@]2(/C(C)=C/[C@@H](C)[C@@H]([C@@H](C)O)OC1=O)[C@@H]3[C@H](O)[C@@H](C)[C@H]4OC(=O)c1[nH]c(Br)c(Br)c1Br [Example 41, (3R,4S,7S,8aS,10aR,11R,12R,13R,14R,14aS,14bS,E)-14-hydroxy-4-((R)-1-hydroxyethyl)-7-methoxy-1,3,13-trimethyl-6-oxo-3,4,6,7,8,8a,10a,11,12,13,14,14a-dodecahydro-11,14b-epoxynaphtho[2,1-e]oxecin-12-yl3,4,5-tribromo-1H-pyrrole-2-carboxylate]
- MIC [1]: > 128 µg/mL
- IC50 ([2]; S. aureus DnaE IC50): 4120 nM
- MIC [3]: > 128 µg/mL
- IC50 ([4]; E. coli DnaE IC50): 79.8 µM
- MIC [5]: > 128 µg/mL
- MIC [6]: 8 µg/mL (≈ 10.6 µM)

SMILES: CO[C@H]1C[C@H]2C=C[C@H]3[C@H]4O[C@]2(/C(C)=C/[C@@H](C)COC1=O)[C@@H]3[C@H](O)[C@@H](C)[C@H]4OC(=O)c1ccc[nH]1 [Example 47, (3R,7S,8aS,10aR,11R,12R,13R,14R,14aS,14bS,E)-14-hydroxy-7-methoxy-1,3,13-trimethyl-6-oxo-3,4,6,7,8,8a,10a,11,12,13,14,14a-dodecahydro-11,14b-epoxynaphtho[2,1-e]oxecin-12-yl 1H-pyrrole-2-carboxylate]
- MIC [1]: 64 µg/mL
- IC50 ([2]; S. aureus DnaE IC50): 89.1 nM
- MIC [3]: > 128 µg/mL
- IC50 [4, 7]: > 212 µM
- MIC [5]: 16 µg/mL (≈ 33.9 µM)
- MIC [6]: > 128 µg/mL

SMILES: C=C1C[C@H]2[C@H]3O[C@]4(/C(C)=C/[C@@H](C)[C@@H]([C@@H](C)O)OC(=O)[C@@H](OC)C[C@@H]14)[C@@H]2[C@H](O)[C@@H](C)[C@H]3OC(=O)c1ccc[nH]1 [Example 199]
- MIC [1]: 32 µg/mL
- IC50 ([2]; S. aureus DnaE IC50): 28.3 nM
- MIC [3]: > 128 µg/mL
- IC50 [4, 7]: 142 µM
- MIC [5]: 16 µg/mL (≈ 30.2 µM)
- MIC [6]: > 128 µg/mL

Reference: patent US9944654B2, “Nargenicin compounds and uses thereof as antibacterial agents” (priority 2014, dated 2018)
